These results are taken from patent US20230017045A1, “PYRIDINE AND PYRIMIDINE CARBOXYLATE HERBICIDES AND METHODS OF USE THEREOF” (Dow AgroSciences LLC, priority 2017, published 2023).

This assay concerns test plant species. Description: Post-emergent herbicidal activity test (greenhouse, foliar spray, visual growth reduction). Type of assay: in vivo. The settings on record: post-emergence, 336 h, 140 g ai/ha. The procedure:
Post-emergent Test: Seeds or nutlets of the desired test plant species were planted in Sun Gro Metro-Mix® 360 planting mixture, which typically has a pH of 6.0 to 6.8 and an organic matter content of about 30 percent, in plastic pots with a surface area of 64 square centimeters. In some aspects, to ensure good germination and healthy plants, a fungicide treatment and/or other chemical or physical treatment was applied. The plants were grown for 7-21 d in a greenhouse with an approximate 15 h photoperiod which was maintained at 23-29° C. during the day and 22-28° C. during the night. Nutrients and water were added on a regular basis and supplemental lighting was provided with overhead metal halide 1000-Watt lamps as necessary. Plants were used for testing when they reached the first or second true leaf stage. A weighed amount, determined by the highest rate to be tested, of each test compound was placed in a 25 mL glass vial and was dissolved in 4 mL of a 97:3 v/v mixture of acetone and DMSO to obtain concentrated stock solutions. […] The concentrated stock solutions obtained were diluted with 20 mL of an aqueous mixture containing acetone, water, isopropyl alcohol, DMSO, […] crop oil concentrate, and X-77 surfactant in a 48.5:39:10:1.5:1.0:0.02 v/v ratio to obtain spray solutions containing the application rate. Compound requirements are based upon a 12 mL application volume at a rate of 187 liters per hectare (L/ha). Formulated compounds were applied to the plant material with an overhead Mandel track sprayer equipped with […] nozzles calibrated to deliver 187 L/ha over an application area of 0.64 square meters at a spray height of 18 inches (43 cm) above the average plant canopy height. Control plants were sprayed in the same manner with the solvent blank. The treated plants and control plants were placed in a greenhouse as described above and watered by subirrigation to prevent wash-off of the test compounds. After 14 d, the condition of the test plants as compared with that of the nontreated and control plants was determined visually and scored on a scale of 0 to 100 percent where 0 corresponds to no injury and 100 corresponds to complete control. In the reporting of the results, Table A: Percent Growth Reduction Conversion Table was used.

Setting [1] is: ALOMY: blackgrass (Alopecurus myosuroides), 14 days after application, read-out: Visual Growth Reduction (%) 14 Days After Application, ALOMY.
Setting [2] is: AMARE: redroot pigweed (Amaranthus retroflexus), 14 days after application, read-out: Visual Growth Reduction (%) 14 Days After Application, AMARE.
Where [3] appears, read: AVEFA: wild oat (Avena fatua), 14 days after application, read-out: Visual Growth Reduction (%) 14 Days After Application, AVEFA.
Setting [4] is: CHEAL: lambsquarters (Chenopodium album), 14 days after application, read-out: Visual Growth Reduction (%) 14 Days After Application, CHEAL.
Where [5] appears, read: CIRAR: canada thistle (Cirsium arvense), 14 days after application, read-out: Visual Growth Reduction (%) 14 Days After Application, CIRAR.
Where [6] appears, read: CYPES: yellow nutsedge (Cyperus esculentus), 14 days after application, read-out: Visual Growth Reduction (%) 14 Days After Application, CYPES.
Where [7] appears, read: DIGSA: crabgrass (Digitaria sanguinalis), 14 days after application, read-out: Visual Growth Reduction (%) 14 Days After Application, DIGSA.
The mark [8] stands for this setting: barnyardgrass (Echinochloa crus-galli), 14 Days After Application, read-out: Visual Growth Reduction (%) ECHCG.
Setting [9] is: common chickweed (Stellaria media), 14 Days After Application, read-out: Visual Growth Reduction (%) STEME.
Setting [10] is: giant foxtail (Setaria faberi), 14 Days After Application, read-out: Visual Growth Reduction (%) SETFA.
Where [11] appears, read: ivy-leaf morning glory (Ipomoea hederacea), 14 Days After Application, read-out: Visual Growth Reduction (%) IPOHE.
Where [12] appears, read: johnsongrass (Sorghum vulgare), 14 Days After Application, read-out: Visual Growth Reduction (%) SORVU.
Setting [13] is: kochia (Bassia scoparia), 14 Days After Application, read-out: Visual Growth Reduction (%) KCHSC.
The mark [14] stands for this setting: rice (Oryza sativa), 14 Days After Application, read-out: Visual Growth Reduction (%) ORYSA.
Where [15] appears, read: wheat, spring (Triticum aestivum), 14 Days After Application, read-out: Visual Growth Reduction (%) TRZAS.

The structures appear in SMILES notation. Read-outs that look alike come from different tables or passages of the source.

For the molecule `COC(=O)c1nc(-c2ccc(C3CC3)cc2Cl)ccc1Cl` [F15, methyl 3-chloro-6-(2-chloro-4-cyclopropylphenyl)picolinate], the pest or weed control at 140 g/ha reads like this: under setting [1], 0 to 29%; under setting [2], 30 to 44%; under setting [3], 0 to 29%; under setting [4], 45 to 59%; under setting [5], 0 to 29%; under setting [6], 30 to 44%. Also, the pest or weed control at 140 g/ha was in the range of 0 to 29% under setting [7]; 0 to 29% under setting [8]; 0 to 29% under setting [9]; 0 to 29% under setting [10]; 95 to 100% under setting [11]; 0 to 29% under setting [12]. For the same molecule, the pest or weed control at 140 g/ha runs as follows: under setting [13], 0 to 29%; under setting [14], 0 to 29%; under setting [15], 0 to 29%.
For `C#Cc1cc(C(F)(F)F)ccc1-c1ccc(Cl)c(C(=O)OC)n1` [F16, methyl 3-chloro-6-(2-ethynyl-4-(trifluoromethyl)phenyl) picolinate], the pest or weed control at 140 g/ha was 0 to 29% under setting [1]; 30 to 44% under setting [2]; 0 to 29% under setting [3]; 0 to 29% under setting [4]; 30 to 44% under setting [5]; 0 to 29% under setting [6]. For the same molecule, the pest or weed control at 140 g/ha runs as follows: under setting [7], 0 to 29%; under setting [8], 0 to 29%; under setting [9], 0 to 29%; under setting [10], 0 to 29%; under setting [11], 95 to 100%; under setting [12], 75 to 84%. Also, the pest or weed control at 140 g/ha was in the range of 0 to 29% under setting [13], 0 to 29% under setting [14] and 0 to 29% under setting [15].
As to `COC(=O)c1nc(-c2ccc(C(F)(F)F)cc2C(F)(F)F)ccc1Cl` [F17, Methyl 6-(2,4-bis(trifluoromethyl)phenyl)-3-chloropicolinate], the pest or weed control at 140 g/ha reads like this: under setting [1], 0 to 29%; under setting [2], 60 to 74%; under setting [3], 0 to 29%; under setting [4], 60 to 74%; under setting [5], 0 to 29%; under setting [6], 0 to 29%. The pest or weed control at 140 g/ha was in the range of 45 to 59% under setting [7]; 0 to 29% under setting [8]; 0 to 29% under setting [9]; 0 to 29% under setting [10]; 95 to 100% under setting [11]; 85 to 94% under setting [12]. In addition, the pest or weed control at 140 g/ha was 0 to 29% under setting [13], 0 to 29% under setting [14] and 0 to 29% under setting [15].
For `C#Cc1ccc(-c2ccc(Cl)c(C(=O)OC)n2)c(Cl)c1` [F18, Methyl 3-chloro-6-(2-chloro-4-ethynylphenyl) picolinate], the pest or weed control at 140 g/ha reads like this: under setting [1], 0 to 29%; under setting [2], 0 to 29%; under setting [3], 0 to 29%; under setting [4], 0 to 29%; under setting [5], 0 to 29%; under setting [6], 0 to 29%. Also, the pest or weed control at 140 g/ha under setting [7] was 0 to 29%; the pest or weed control at 140 g/ha under setting [8] is 0 to 29%; the pest or weed control at 140 g/ha under setting [9] is 0 to 29%; the pest or weed control at 140 g/ha under setting [10] was in the range of 0 to 29%; the pest or weed control at 140 g/ha under setting [11] fell in the range of 0 to 29%; the pest or weed control at 140 g/ha under setting [12] was 0 to 29%. For the same molecule, the pest or weed control at 140 g/ha was 0 to 29% under setting [13], 0 to 29% under setting [14] and 0 to 29% under setting [15].
For the molecule `COC(=O)c1nc(-c2ccc(C(F)F)cc2Cl)ccc1Cl` [F19, methyl 3-chloro-6-(2-chloro-4-(difluoromethyl)phenyl)picolinate], the pest or weed control at 140 g/ha reads like this: under setting [1], 0 to 29%; under setting [2], 95 to 100%; under setting [3], 0 to 29%; under setting [4], 95 to 100%; under setting [5], 95 to 100%; under setting [6], 30 to 44%. For the same molecule, the pest or weed control at 140 g/ha lay in the range of 0 to 29% under setting [7]; 0 to 29% under setting [8]; 0 to 29% under setting [9]; 0 to 29% under setting [10]; 95 to 100% under setting [11]; 30 to 44% under setting [12]. Besides, the pest or weed control at 140 g/ha under setting [13] was in the range of 85 to 94%, the pest or weed control at 140 g/ha under setting [14] lay within 0 to 29% and the pest or weed control at 140 g/ha under setting [15] fell in the range of 0 to 29%.
Regarding `COC(=O)c1nc(-c2ccc(/C=N/N(C)C)cc2Cl)ccc1Cl` [F20, methyl 3-chloro-6-(2-chloro-4-((2,2-dimethylhydrazono)methyl)phenyl) picolinate], the pest or weed control at 140 g/ha under setting [1] lay within 0 to 29%; the pest or weed control at 140 g/ha under setting [2] lay in the range of 0 to 29%; the pest or weed control at 140 g/ha under setting [3] fell in the range of 0 to 29%; the pest or weed control at 140 g/ha under setting [4] lay within 0 to 29%; the pest or weed control at 140 g/ha under setting [5] lay in the range of 0 to 29%; the pest or weed control at 140 g/ha under setting [6] lay within 0 to 29%. Moreover, the pest or weed control at 140 g/ha by setting is: under setting [7], 0 to 29%; under setting [8], 0 to 29%; under setting [9], 0 to 29%; under setting [10], 0 to 29%; under setting [11], 60 to 74%; under setting [12], 0 to 29%. Further, the pest or weed control at 140 g/ha reads like this: under setting [13], 0 to 29%; under setting [14], 0 to 29%; under setting [15], 0 to 29%.
As to `CO/N=C/c1ccc(-c2ccc(Cl)c(C(=O)OC)n2)c(Cl)c1` [F21, methyl 3-chloro-6-(2-chloro-4-((methoxyimino)methyl)phenyl)picolinate], the pest or weed control at 140 g/ha lay in the range of 0 to 29% under setting [1]; 0 to 29% under setting [2]; 0 to 29% under setting [3]; 0 to 29% under setting [4]; 0 to 29% under setting [5]; 0 to 29% under setting [6]. Also, the pest or weed control at 140 g/ha under setting [7] lay in the range of 0 to 29%; the pest or weed control at 140 g/ha under setting [8] is 0 to 29%; the pest or weed control at 140 g/ha under setting [9] was 0 to 29%; the pest or weed control at 140 g/ha under setting [10] lay in the range of 0 to 29%; the pest or weed control at 140 g/ha under setting [11] fell in the range of 0 to 29%; the pest or weed control at 140 g/ha under setting [12] is 0 to 29%. For the same molecule, the pest or weed control at 140 g/ha reads like this: under setting [13], 0 to 29%; under setting [14], 0 to 29%; under setting [15], 0 to 29%.
